Experimental data from patent US9067974B2, “Polymyxin derivatives and uses thereof” (priority 2006, dated 2015).
“And” between values parts separate entries of the source, which are not always exact repeats. Identical values can stand only once.

Columns and labels:
[1] = test system: E. coli IH3080 (K1:O18); test: Experimental E. coli peritonitis model in mice; type: in vivo; conditions: 5 mg/kg subcutaneous
Description: A suspension of E. coli IH3080 (K1:O18) in saline (0.9% NaCl) was prepared from an overnight culture on a blood agar plate (Statens Serum Institut, Copenhagen, Denmark). All mice (female NMR1 from Harlan Scandinavia, Allerød, Denmark; weight, 25-30 g) were inoculated intraperitoneally with 0.5 ml of the suspension containing 0.96×10^6 CFU per ml in the lateral lower quadrant of the abdomen. At 1 h, the CFU count was determined from three mice and the remaining mice (four mice per group) were treated with a subcutaneous injection of 0.2 ml of erythromycin solution in saline (corresponding to 5 mg/kg body weight) or NAB7061 solution in saline (corresponding to 5 mg/kg body weight), or both erythromycin and NAB7061 (corresponding to 5 mg/kg body weight of both drugs; given at two separate sites). Control group received two 0.2 ml injections of saline. At 4.5 h postinfection, all mice were anaesthetized with CO2 and sacrificed. Sterile saline (2 ml) was injected intraperitoneally and the abdomen was gently massaged before it was opened and the fluid sampled. Appropriate dilutions of the fluid were plated on blood agar plates, the plates were incubated overnight, and the colonies were counted.

[2] = test system: A. baumannii ATCC 19606; test: Sensitization to rifampin: well diffusion growth inhibition on LB plates containing rifampin; type: cell-based, Acinetobacter baumannii; conditions: 4 μg of compound
[3] = test system: Acinetobacter baumannii ATCC 19606; test: Well diffusion growth inhibition on LB agar plates (direct antibacterial activity); type: cell-based; conditions: A. baumannii ATCC 19606
Outline: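 Direct antibacterial activity against Acinetobacter baumannii ATCC 19606 was measured by agar well diffusion on LB plates. The plates were flooded with a suspension of approx. 10^8 cells/ml in 0.9% NaCl, and the excess was removed. Once the surface dried, five wells of 2 mm diameter were drilled per plate. The wells were filled with test compound dissolved in 0.9% NaCl, with plain 0.9% NaCl as control. After 18 h at 37° C., inhibition zone diameters were measured and converted to growth inhibition areas in square mm.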

[4] = test system: Pseudomonas aeruginosa ATCC 27853; test: as above; type: cell-based; conditions: Ps. aeruginosa ATCC 27853
Outline: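 Pseudomonas aeruginosa ATCC 27853 was tested for direct antibacterial susceptibility by agar well diffusion. A suspension of about 10^8 cells/ml in 0.9% NaCl was spread over LB agar and the excess removed. After drying, 2 mm wells were drilled and filled with compound dissolved in 0.9% NaCl, with NaCl alone as control. Plates were incubated 18 h at 37° C, and inhibition zone diameters were measured and converted to areas in square mm.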

[5] = test system: E. cloacae ATCC23355; test: as above; type: cell-based, Enterobacter cloacae
Description: (§1) From an overnight-grown culture of IH3080 on LB agar, a suspension of approx. 10^8 cells/ml was prepared in 0.9% NaCl. Aliquots of this suspension were then pipetted on the agar plates and the plates were gently shaken to spread the suspension evenly on the entire surface of the plate. Thereafter, the unabsorbed part of the suspension was removed by using a Pasteur pipette. After the surface had dried, small wells (diameter, 2 mm) were drilled on the plates (five wells per plate) by using a sterile sharp-edged narrow metal tube, single-use pipette tip, and vacuum suction. Samples (4 μl and 10 μl) of the peptide solution in 0.9% NaCl (at concentrations of 1 μg/ml and 0.1 μg/ml) were then pipetted to the wells and the sample fluids were allowed to absorb. Controls included 0.9% NaCl solution without the compound to be tested. The plates were then incubated for 18 h at 37° C. whereafter the diameters of growth inhibition zones around each well were measured; the diameter of the well itself was not reduced. Finally, the diameters were converted to surface areas of growth inhibition (in square mm).
(§2) The susceptibility of eleven Gram-negative bacterial strains (nine different species) to NAB734 and polymyxin B was compared by using the susceptibility determination method described in Example 2. The strains included those belonging to the species of Serratia marcescens and Proteus mirabilis, both species generally known to be resistant to polymyxin. Furthermore, the susceptibility determination was also performed by using the Gram-positive bacterium, Staphylococcus aureus, also generally known to be polymyxin-resistant. Ten of the strains originated from ATCC (American Type Culture Collection, Manassas, Va., U.S.A.), and one from CCUG (Culture Collection of University of Gothenburg, Sweden). The source of E. coli IH3080 has been described in Example 2. Polymyxin B sulfate was from Sigma-Aldrich (St. Louis, Mo., USA).

[6] = test system: K. oxytoca ATCC13182; test: as above; type: cell-based, Klebsiella oxytoca
Description: as §1, §2

[7] = test system: C. freundii ATCC8090; test: as above; type: cell-based, Citrobacter freundii
Description: as §1, §2

[8] = test system: S. aureus ATCC 25923; test: as above; type: cell-based, Staphylococcus aureus
Description: as §1, with “Samples (4 μl and 10 μl) of the peptide solution in 0.9% NaCl (at concentrations of 1 μg/ml and 0.1 μg/ml) were then pipetted to the wells and the sample fluids were allowed to absorb.” left out
as §2

[9] = test system: E. coli ATCC25922; test: as above; type: cell-based, Escherichia coli
Description: as §1, with “Samples (4 μl and 10 μl) of the peptide solution in 0.9% NaCl (at concentrations of 1 μg/ml and 0.1 μg/ml) were then pipetted to the wells and the sample fluids were allowed to absorb.” left out
as §2

[10] = test system: E. coli IH3080; test: Sensitization to rifampin: well diffusion growth inhibition on LB plates containing rifampin; type: cell-based, Escherichia coli; conditions: 4 μg of compound
[11] = test system: K. pneumoniae ATCC13883; test: Well diffusion growth inhibition on LB agar plates (direct antibacterial activity); type: cell-based, Klebsiella pneumoniae
Description: as §1, §2

[12] = test system: S. marcescens ATCC8100; test: as above; type: cell-based, Serratia marcescens
Description: as §1, §2

[13] = test system: K. pneumoniae CCUG45421; test: as above; type: cell-based, Klebsiella pneumoniae
Description: as §1, with “Samples (4 μl and 10 μl) of the peptide solution in 0.9% NaCl (at concentrations of 1 μg/ml and 0.1 μg/ml) were then pipetted to the wells and the sample fluids were allowed to absorb.” left out
as §2

[14] = test system: Ps. aeruginosa ATCC 27853; test: Sensitization to rifampin: well diffusion growth inhibition on LB plates containing rifampin; type: cell-based, Pseudomonas aeruginosa; conditions: 4 μg of compound
[15] = test system: E. coli IH3080 (K1:O18); test: Well diffusion growth inhibition on LB agar plates (direct antibacterial activity); type: cell-based, Escherichia coli
Outline: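 Growth inhibition of encapsulated E. coli IH3080 (K1:O18) was measured by well diffusion on LB agar plates. A suspension of about 10^8 cells/ml in 0.9% NaCl, made from an overnight LB agar culture, was spread over the plates and the excess removed. Once dry, five 2 mm wells were drilled per plate and test solutions added, with 0.9% NaCl as control. After 18 h at 37° C, inhibition zone diameters were measured and converted to surface areas in square mm.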

[16] = test system: P. mirabilis ATCC29906; test: as above; type: cell-based, Proteus mirabilis
Description: as §1, §2

[17] = target: brush-border membrane (BBM) from the renal cortex; test: Inhibition of [3H] gentamycin binding to brush-border membrane vesicles; set-up: species or system rats; conditions: 20 μM [3H] gentamycin; 60 min at 4° C.; rat renal cortex BBM vesicles
Description: The binding of the compounds according to this invention to isolated brush-border membrane (BBM) from the renal cortex can be measured indirectly by measuring their ability to inhibit the binding of radiolabelled gentamycin to BBM. Accordingly, the compounds according to this invention that have less affinity to BBM than for example polymyxin B inhibit the binding of radiolabelled gentamycin to a lesser degree than does polymyxin B.
BBM was isolated from the renal cortex of male albino rats by using the Mg^2+/EGTA precipitation technique as described by Nagai et al. (2006). The binding of gentamycin was measured, according to the method described by Nagai et al. (2006) by incubating BBM vesicles (20 μl) in 10 mM HEPES (pH 7.5) with 100 mM mannitol in the presence of 20 μM [^3H] gentamycin (Amersham Biosciences Inc., Buckinghamshire, U.K.) with or without the compound to be tested or a positive control. After an incubation of 60 min at 4° C., 1 ml of ice-cold buffer described above was added, and the mixture was filtered through a Millipore filter (0.45 μm; HAWP). The filter was washed with the buffer and the radioactivity remaining in the filter was measured by using a liquid scintillation counter. The IC50 values were determined as in Nagai et al. (2006) using the Hill equation.

## CC[C@H]1OC(=O)[C@H](C)[C@@H](O[C@H]2C[C@@](C)(OC)[C@@H](O)[C@H](C)O2)[C@H](C)[C@@H](O[C@@H]2O[C@H](C)C[C@H](N(C)C)[C@H]2O)[C@](C)(O)C[C@@H](C)C(=O)[C@H](C)[C@@H](O)[C@]1(C)O [erythromycin]
[1]; 4.5 h postinfection ([…] after the treatment)
  CFU counts in peritoneal fluid: 8.9 (±6.4)×10^6 per ml
[1]; from 1 h to 4.5 h postinfection
  Factor of increase of the bacterial count: 12

## OA-Thr-DSer-cy[Dab-Dab-DPhe-Thr-Dab-Dab-Thr-] [NAB 734]
[2]; rifampin 0 μg/ml
  Antibacterial activity in the presence of rifampin (growth inhibition area around a well): 38 square millimeters
[2]; rifampin 0.1 μg/ml
  Antibacterial activity in the presence of rifampin (growth inhibition area around a well): 201 square millimeters
[2]; rifampin 0.3 μg/ml
  Antibacterial activity in the presence of rifampin (growth inhibition area around a well): 283 square millimeters
[3]; 4 μg per well
  Antibacterial activity (growth inhibition area around a well): 38 square millimeters and 57 square millimeters
[3]; 10 μg per well
  Antibacterial activity (growth inhibition area around a well): 95 square millimeters and 79 square millimeters
[4]; 4 μg per well
  Antibacterial activity (growth inhibition area around a well): 13 square millimeters
[4]; 10 μg per well
  Antibacterial activity (growth inhibition area around a well): 50 square millimeters
[5]; 4 μg per well
  Antibacterial activity (growth inhibition area around a well): 133 square millimeters
[5]; 10 μg per well
  Antibacterial activity (growth inhibition area around a well): 177 square millimeters
[6]; 4 μg per well
  Antibacterial activity (growth inhibition area around a well): 95 square millimeters
[6]; 10 μg per well
  Antibacterial activity (growth inhibition area around a well): 143 square millimeters
[7]; 4 μg per well
  Antibacterial activity (growth inhibition area around a well): 133 square millimeters
[7]; 10 μg per well
  Antibacterial activity (growth inhibition area around a well): 177 square millimeters
[8]; 4 μg per well
  Antibacterial activity (growth inhibition area around a well): 0 square millimeters
[8]; 10 μg per well
  Antibacterial activity (growth inhibition area around a well): 0 square millimeters
[9]; 4 μg per well
  Antibacterial activity (growth inhibition area around a well): 133 square millimeters
[9]; 10 μg per well
  Antibacterial activity (growth inhibition area around a well): 177 square millimeters
[10]; rifampin 0 μg/ml
  Antibacterial activity in the presence of rifampin (growth inhibition area around a well): 113 square millimeters
[10]; rifampin 0.1 μg/ml
  Antibacterial activity in the presence of rifampin (growth inhibition area around a well): 154 square millimeters
[10]; rifampin 1.0 μg/ml
  Antibacterial activity in the presence of rifampin (growth inhibition area around a well): 201 square millimeters
[11]; 4 μg per well
  Antibacterial activity (growth inhibition area around a well): 64 square millimeters
[11]; 10 μg per well
  Antibacterial activity (growth inhibition area around a well): 113 square millimeters
[12]; 4 μg per well
  Antibacterial activity (growth inhibition area around a well): 0 square millimeters
[12]; 10 μg per well
  Antibacterial activity (growth inhibition area around a well): 0 square millimeters
[13]; 4 μg per well
  Antibacterial activity (growth inhibition area around a well): 64 square millimeters
[13]; 10 μg per well
  Antibacterial activity (growth inhibition area around a well): 104 square millimeters
[14]; rifampin 0 μg/ml
  Antibacterial activity in the presence of rifampin (growth inhibition area around a well): 13 square millimeters
[14]; rifampin 0.1 μg/ml
  Antibacterial activity in the presence of rifampin (growth inhibition area around a well): 20 square millimeters
[14]; rifampin 0.3 μg/ml
  Antibacterial activity in the presence of rifampin (growth inhibition area around a well): 20 square millimeters
[15]; 4 μg of compound per well
  Antibacterial activity (growth inhibition area around a well): 113 square millimeters
[15]; 10 μg of compound per well
  Antibacterial activity (growth inhibition area around a well): 177 square millimeters and 154 square millimeters
[16]; 4 μg per well
  Antibacterial activity (growth inhibition area around a well): 0 square millimeters
[16]; 10 μg per well
  Antibacterial activity (growth inhibition area around a well): 0 square millimeters

## gentamycin [unlabelled gentamycin]
[17]
  IC50: 90.2 µM
